Measurements: patent publication US20210045385A1, “PYRIDAZINONE-SUBSTITUTED KETOXIMES AS HERBICIDES” (FMC Corporation, priority 2018, published 2021)

Tests used:
Assay type in all cases: in vivo
[1] = test system: wheat (Triticum aestivum); assay: Test C postemergence, visual plant response rating
Outline: (§1)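 Visual injury on a 0 (no effect) to 100 (complete control) scale versus untreated controls, scored approximately 10 d after treatment under greenhouse conditions. Treatments used surfactant-containing non-phytotoxic solvent formulations, sprayed onto loam–sand soil preemergence or onto one- to two-leaf plants 2–10 cm tall postemergence.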

[2] = test system: kochia (Bassia scoparia); assay: Test C postemergence, visual plant response rating
Outline: as §1

[3] = test system: corn (Zea mays); assay: Test C postemergence, visual plant response rating
Outline: as §1

[4] = test system: foxtail, giant (giant foxtail, Setaria faberi); assay: Test C postemergence, visual plant response rating
Outline: as §1

[5] = test system: galium (catchweed bedstraw, Galium aparine); assay: Test C postemergence, visual plant response rating
Outline: as §1

[6] = test system: blackgrass (Alopecurus myosuroides); assay: Test C postemergence, visual plant response rating
Outline: as §1

[7] = test system: barnyardgrass (Echinochloa crus-galli); assay: Test C postemergence, visual plant response rating
Outline: as §1

[8] = test system: ragweed (common ragweed, Ambrosia artemisiifolia); assay: Test C postemergence, visual plant response rating
Outline: as §1

[9] = test system: Italian ryegrass (Lolium mutiflorum); assay: Test C postemergence, visual plant response rating
Outline: as §1

[10] = test system: pigweed (Amaranthus retroflexus); assay: Test C postemergence, visual plant response rating
Outline: as §1

[11] = test system: kochia (Bassia scoparia); assay: Test C preemergence, visual plant response rating
Outline: as §1

[12] = test system: foxtail, giant (giant foxtail, Setaria faberi); assay: Test C preemergence, visual plant response rating
Outline: as §1

[13] = test system: barnyardgrass (Echinochloa crus-galli); assay: Test C preemergence, visual plant response rating
Outline: as §1

[14] = test system: ragweed (common ragweed, Ambrosia artemisiifolia); assay: Test C preemergence, visual plant response rating
Outline: as §1

[15] = test system: Italian ryegrass (Lolium mutiflorum); assay: Test C preemergence, visual plant response rating
Outline: as §1

[16] = test system: pigweed (Amaranthus retroflexus); assay: Test C preemergence, visual plant response rating
Outline: as §1

[17] = test system: rice (Oryza sativa); assay: Test D flooded paddy test, visual plant response rating; conditions: 250 g ai/ha, scale 0 to 100 (0 no effect, 100 complete control), 13 to 15 d
Outline: (§2)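 Rating is visual, on a 0 (no effect) to 100 (complete control) scale versus controls, taken 13 to 15 d after treatment in a greenhouse. Treatment went into paddy water kept 3 cm above the soil surface, with plants at the 2-leaf stage.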

[18] = test system: duck salad (Heteranthera limosa); assay: as above; conditions: 250 g ai/ha, scale 0 to 100 (0 no effect, 100 complete control), 13 to 15 d
Outline: as §2

[19] = test system: sedge umbrella (small-flower umbrella sedge, Cyperus difformis); assay: as above; conditions: 250 g ai/ha, scale 0 to 100 (0 no effect, 100 complete control), 13 to 15 d
Outline: as §2

[20] = test system: barnyardgrass (Echinochloa crus-galli); assay: as above; conditions: 250 g ai/ha, scale 0 to 100 (0 no effect, 100 complete control), 13 to 15 d
Outline: as §2

[21] = Test C, postemergence, 125 g ai/ha
[22] = Test C, 31 g ai/ha, 0 is no effect, 100 is complete control
[23] = Test C, 125 g ai/ha, 0 is no effect, 100 is complete control

SMILES	Wheat plant response rating (0 to 100 scale) ([1]; Postemergence, 31 g ai/ha)	Wheat plant response rating (0 to 100 scale) [1, 21]	Kochia plant response rating (0 to 100 scale) ([2]; Postemergence, 31 g ai/ha)	Kochia plant response rating (0 to 100 scale) [2, 21]	Corn plant response rating (0 to 100 scale) ([3]; Postemergence, 31 g ai/ha)	Corn plant response rating (0 to 100 scale) [3, 21]	Foxtail, Giant plant response rating (0 to 100 scale) ([4]; Postemergence, 31 g ai/ha)	Foxtail, Giant plant response rating (0 to 100 scale) [4, 21]	Galium plant response rating (0 to 100 scale) ([5]; Postemergence, 31 g ai/ha)	Galium plant response rating (0 to 100 scale) [5, 21]	Blackgrass plant response rating (0 to 100 scale) ([6]; Postemergence, 31 g ai/ha)	Blackgrass plant response rating (0 to 100 scale) [6, 21]	Barnyardgrass plant response rating (0 to 100 scale) ([7]; Postemergence, 31 g ai/ha)	Barnyardgrass plant response rating (0 to 100 scale) [7, 21]	Ragweed plant response rating (0 to 100 scale) ([8]; Postemergence, 31 g ai/ha)	Ragweed plant response rating (0 to 100 scale) [8, 21]	Ryegrass, Italian plant response rating (0 to 100 scale) ([9]; Postemergence, 31 g ai/ha)	Ryegrass, Italian plant response rating (0 to 100 scale) [9, 21]	Pigweed plant response rating (0 to 100 scale) ([10]; Postemergence, 31 g ai/ha)	Pigweed plant response rating (0 to 100 scale) [10, 21]	further results
C#CCON=C(c1ccc(Cl)c(Cl)c1)c1c(O)c(C)nn(C)c1=O [Compound 178]	0	80	40	70	0	10	10	30	40	80	0	30	20	50	0	40	20	90	20	40	Kochia plant response rating (0 to 100 scale) ([11]; 125 g ai/ha): 0; Kochia plant response rating (0 to 100 scale) [11, 22]: 0; Foxtail, Giant plant response rating (0 to 100 scale) ([12]; 125 g ai/ha): 60; Foxtail, Giant plant response rating (0 to 100 scale) [12, 22]: 10; Barnyardgrass plant response rating (0 to 100 scale) ([13]; 125 g ai/ha): 50; Barnyardgrass plant response rating (0 to 100 scale) [13, 22]: 30; Ragweed plant response rating (0 to 100 scale) ([14]; 125 g ai/ha): 40; Ragweed plant response rating (0 to 100 scale) [14, 22]: 0; Ryegrass, Italian plant response rating (0 to 100 scale) ([15]; 125 g ai/ha): 70; Ryegrass, Italian plant response rating (0 to 100 scale) [15, 22]: 0; Pigweed plant response rating (0 to 100 scale) ([16]; 125 g ai/ha): 70; Pigweed plant response rating (0 to 100 scale) [16, 22]: 20; Plant response rating, Rice (Flood) [17]: 0; Plant response rating, Ducksalad (Flood) [18]: 0; Plant response rating, Sedge, Umbrella (Flood) [19]: 0; Plant response rating, Barnyardgrass (Flood) [20]: 0
CO/N=C(/c1cc(F)cc(F)c1C)c1c(O)c(C)nn(C)c1=O [Compound 305]	0	0	50	70	0	0	30	50	70	70	10	20	20	30	30	70	10	80	60	90	Kochia plant response rating (0 to 100 scale) ([11]; 125 g ai/ha): 30; Kochia plant response rating (0 to 100 scale) [11, 22]: 10; Foxtail, Giant plant response rating (0 to 100 scale) ([12]; 125 g ai/ha): 30; Foxtail, Giant plant response rating (0 to 100 scale) [12, 22]: 10; Barnyardgrass plant response rating (0 to 100 scale) ([13]; 125 g ai/ha): 20; Barnyardgrass plant response rating (0 to 100 scale) [13, 22]: 10; Ragweed plant response rating (0 to 100 scale) ([14]; 125 g ai/ha): 20; Ragweed plant response rating (0 to 100 scale) [14, 22]: 20; Ryegrass, Italian plant response rating (0 to 100 scale) ([15]; 125 g ai/ha): 30; Ryegrass, Italian plant response rating (0 to 100 scale) [15, 22]: 0; Pigweed plant response rating (0 to 100 scale) ([16]; 125 g ai/ha): 70; Pigweed plant response rating (0 to 100 scale) [16, 22]: 30; Plant response rating, Rice (Flood) [17]: 0; Plant response rating, Ducksalad (Flood) [18]: 0; Plant response rating, Sedge, Umbrella (Flood) [19]: 0; Plant response rating, Barnyardgrass (Flood) [20]: 0
CCO/N=C(\c1c(O)cnn(C)c1=O)c1ccc(F)c2ccccc12 [Compound 269]	0	0	0	30	0	20	10	40	50	80	0	30	0	0	10	40	0	60	50	60	Kochia plant response rating (0 to 100 scale) [11, 22]: 0; Kochia plant response rating (0 to 100 scale) [11, 23]: 0; Foxtail, Giant plant response rating (0 to 100 scale) [12, 22]: 0; Foxtail, Giant plant response rating (0 to 100 scale) [12, 23]: 30; Barnyardgrass plant response rating (0 to 100 scale) [13, 22]: 0; Barnyardgrass plant response rating (0 to 100 scale) [13, 23]: 0; Ragweed plant response rating (0 to 100 scale) [14, 22]: 0; Ragweed plant response rating (0 to 100 scale) [14, 23]: 0; Ryegrass, Italian plant response rating (0 to 100 scale) [15, 22]: 0; Ryegrass, Italian plant response rating (0 to 100 scale) [15, 23]: 10; Pigweed plant response rating (0 to 100 scale) [16, 22]: 0; Pigweed plant response rating (0 to 100 scale) [16, 23]: 10; Plant response rating, Rice (Flood) [17]: 0; Plant response rating, Ducksalad (Flood) [18]: 0; Plant response rating, Sedge, Umbrella (Flood) [19]: 0; Plant response rating, Barnyardgrass (Flood) [20]: 0
CC(C)O/N=C(/c1c(O)cnn(C)c1=O)c1ccc(F)c2ccccc12 [Compound 302]	0	0	0	20	0	0	10	30	20	60	0	0	0	0	0	20	0	30	30	60	Kochia plant response rating (0 to 100 scale) [11, 22]: 0; Kochia plant response rating (0 to 100 scale) [11, 23]: 0; Foxtail, Giant plant response rating (0 to 100 scale) [12, 22]: 0; Foxtail, Giant plant response rating (0 to 100 scale) [12, 23]: 10; Barnyardgrass plant response rating (0 to 100 scale) [13, 22]: 0; Barnyardgrass plant response rating (0 to 100 scale) [13, 23]: 0; Ragweed plant response rating (0 to 100 scale) [14, 22]: 0; Ragweed plant response rating (0 to 100 scale) [14, 23]: 20; Ryegrass, Italian plant response rating (0 to 100 scale) [15, 22]: 0; Ryegrass, Italian plant response rating (0 to 100 scale) [15, 23]: 0; Pigweed plant response rating (0 to 100 scale) [16, 22]: 10; Pigweed plant response rating (0 to 100 scale) [16, 23]: 40; Plant response rating, Rice (Flood) [17]: 0; Plant response rating, Ducksalad (Flood) [18]: 0; Plant response rating, Sedge, Umbrella (Flood) [19]: 0; Plant response rating, Barnyardgrass (Flood) [20]: 0
